This is an account of results in patent US20160340674A1, “Compositions and Methods to Inhibit EZH2 for the Treatment of Cardiovascular Diseases” (UNIVERSITY OF ROCHESTER, priority 2014, published 2016).

The experiment concerns human umbilical vein endothelial cells (HUVECs). In words: KLF2 and eNOS gene expression in endothelial cells treated with GSK126 (RT-PCR and q-PCR). In kind it is cell-based. The text has this: Experiments were designed to determine the effects of the EZH2 inhibitor GSK126 on expression of genes KLF2 and eNOS in endothelial cells. Histone methylation is an important epigenetic modification. Histone 3 lysine 27 (H3K27) is correlated with transcriptional repression. EZH2, a histone methytransferase, is critical for the epigenetic maintenance of the H3K27me3 repressive chromatin mark. To determine whether the alternation of histone methylation affects gene expression in endothelial cells, experiments were designed to assess the effects of an EZH2 inhibitor GSK126. […]

Where [1] appears, read: 0.02 μM GSK126 for different times, RT-PCR and q-PCR (FIG. 1).

As for `CC[C@H](C)n1cc(C)c2c(C(=O)NCc3c(C)cc(C)[nH]c3=O)cc(-c3ccc(N4CCNCC4)nc3)cc21` [GSK126, (S)-1-(sec-butyl)-N-((4,6-dimethyl-2-oxo-1,2-dihydropyridin-3-yl)methyl)-3-methyl-6-(6-(piperazin-1-yl)pyridin-3-yl)-1H-indole-4-carboxamide], under setting [1], the “level of KLF2 mRNA” value was “increased” and the “level of eNOS mRNA” value was “increased”. Further, the KLF2 expression entry (24 hours at different concentrations (FIG. 2A)) is reported as “dose-dependently increased”. Further, for the setting “24 hours at different concentrations (FIG. 2B)”, the eNOS expression entry was “dose-dependently increased”.
